# Read-outs that look alike come from different tables or passages of the source.
# Experiments:
# [1] = system: Bacillus subtilis (Presque Isle 620); assay: Antimicrobial disk diffusion; assay type: cell-based
# [2] = system: Streptococcus pneumoniae (ATCC 6303); assay: Antimicrobial disk diffusion; assay type: cell-based
# [3] = system: SF-295 (CNS); assay: ASU-CRI minipanel of human cancer cell lines; assay type: cell-based; settings: CNS SF-295
# Description: (§1) Individual cell line response values are provided in the Experimental.
# [4] = system: OVCAR-3 (Ovarian); assay: ASU-CRI minipanel of human cancer cell lines; assay type: cell-based; settings: Ovarian OVCAR-3
# Description: as §1
# [5] = system: DU-145 (Prostate); assay: ASU-CRI minipanel of human cancer cell lines; assay type: cell-based; settings: Prostate DU-145
# Description: as §1
# [6] = system: BXPC-3 (Pancreas-a); assay: ASU-CRI minipanel of human cancer cell lines; assay type: cell-based; settings: Pancreas-a BXPC-3
# Description: as §1
# [7] = system: NCI-H460 (Lung-NSC); assay: ASU-CRI minipanel of human cancer cell lines; assay type: cell-based
# Description: as §1
# [8] = system: KM20L2 (Colon); assay: ASU-CRI minipanel of human cancer cell lines; assay type: cell-based
# Description: as §1
# [9] = system: Micrococcus luteus (Presque Isle 456); assay: Antimicrobial disk diffusion; assay type: cell-based
# [10] = system: P388 lymphocytic leukemia; assay: in vitro murine P388 lymphocytic leukemia (PS) cell growth inhibition; assay type: cell-based; settings: for GI50: Mouse Leukemia P388; for PS ED50 (P388 ED50): in vitro P388 lymphocytic leukemia
# Description: The fractions obtained from the 1988-89 recollection of Cribrochalina so. (See: Pettit, G. R.; Collins, J. C.; Herald, D. L.; Doubek, D. L.; Boyd, M. R.; Schmidt, J. M.; Hooper, J. N. A.; Tackett, L. P. Can. J. Cheim. 1992, 70, 1170-1175) beginning with the 195 g dichloromethane partition fraction were re-examined guided by bioassay results using the murine P388 lymphocytic leukemia.
# as §1
# [11] = system: NCI 60-cell in vitro panel; assay: NCI 60-cell in vitro panel, mean panel; assay type: cell-based, human; settings: average ±SEM from the 40 cell lines that yielded GI50 values for both 4a and 5
# Description: as §1
# [12] = system: SF-268; assay: NCI 60-cell screen; assay type: cell-based, human; settings: averaged, quadruplicate, upper limit 10^−5 M
# [13] = system: HOP-62; assay: NCI 60-cell screen; assay type: cell-based, human; settings: averaged, quadruplicate, upper limit 10^−5 M
# [14] = system: PC-3; assay: NCI 60-cell screen; assay type: cell-based, human; settings: averaged, quadruplicate, upper limit 10^−5 M
# [15] = system: U251; assay: NCI 60-cell screen; assay type: cell-based, human; settings: averaged, quadruplicate, upper limit 10^−5 M
# [16] = system: Escherichia coli (ATCC 25922); assay: Antimicrobial disk diffusion; assay type: cell-based
# [17] = system: COLO 205; assay: NCI 60-cell screen; assay type: cell-based, human; settings: averaged, quadruplicate, upper limit 10^−5 M
# [18] = system: SK-MEL-5; assay: NCI 60-cell screen; assay type: cell-based, human; settings: averaged, quadruplicate, upper limit 10^−5 M
# [19] = system: KM 12; assay: NCI 60-cell screen; assay type: cell-based, human; settings: averaged, quadruplicate, upper limit 10^−5 M
# [20] = system: OVCAR-3; assay: NCI 60-cell screen; assay type: cell-based, human; settings: averaged, quadruplicate, upper limit 10^−5 M
# [21] = system: MCF7/ADR-RES; assay: NCI 60-cell screen; assay type: cell-based, human; settings: averaged, quadruplicate, upper limit 10^−5 M
# [22] = system: MCF7; assay: NCI 60-cell screen; assay type: cell-based, human; settings: averaged, quadruplicate, upper limit 10^−5 M
# [23] = system: NCI-H522; assay: NCI 60-cell screen; assay type: cell-based, human; settings: averaged, quadruplicate, upper limit 10^−5 M
# [24] = system: MDA-MB-435; assay: NCI 60-cell screen; assay type: cell-based, human; settings: averaged, quadruplicate, upper limit 10^−5 M
# [25] = system: SR; assay: NCI 60-cell screen; assay type: cell-based, human; settings: averaged, quadruplicate, upper limit 10^−5 M
# [26] = system: Stenotrophomonas maltophilia (ATCC 13637); assay: Antimicrobial disk diffusion; assay type: cell-based
# [27] = system: Cryptococcus neoformans (ATCC 90112); assay: Antimicrobial disk diffusion; assay type: cell-based
# [28] = system: HOP-92; assay: NCI 60-cell screen; assay type: cell-based, human; settings: averaged, quadruplicate, upper limit 10^−5 M
# [29] = system: HS578T; assay: NCI 60-cell screen; assay type: cell-based, human; settings: averaged, quadruplicate, upper limit 10^−5 M
# [30] = system: MOLT-4; assay: NCI 60-cell screen; assay type: cell-based, human; settings: averaged, quadruplicate, upper limit 10^−5 M
# [31] = system: NCI-H226; assay: NCI 60-cell screen; assay type: cell-based, human; settings: averaged, quadruplicate, upper limit 10^−5 M
# [32] = system: ACHN; assay: NCI 60-cell screen; assay type: cell-based, human; settings: averaged, quadruplicate, upper limit 10^−5 M
# [33] = system: HL-60 (TB); assay: NCI 60-cell screen; assay type: cell-based, human; settings: averaged, quadruplicate, upper limit 10^−5 M
# [34] = system: K-562; assay: NCI 60-cell screen; assay type: cell-based, human; settings: averaged, quadruplicate, upper limit 10^−5 M
# [35] = system: MALME-3M; assay: NCI 60-cell screen; assay type: cell-based, human; settings: averaged, quadruplicate, upper limit 10^−5 M
# [36] = system: SNB-75; assay: NCI 60-cell screen; assay type: cell-based, human; settings: averaged, quadruplicate, upper limit 10^−5 M
# [37] = system: Enterococcus faecalis (ATCC 29212); assay: Antimicrobial disk diffusion; assay type: cell-based
# [38] = system: Staphylococcus aureus (ATCC 29213); assay: Antimicrobial disk diffusion; assay type: cell-based
# [39] = system: CCRF-CEM; assay: NCI 60-cell screen; assay type: cell-based, human; settings: averaged, quadruplicate, upper limit 10^−5 M
# [40] = system: A549/ATCC; assay: NCI 60-cell screen; assay type: cell-based, human; settings: averaged, quadruplicate, upper limit 10^−5 M
# [41] = system: NCI-H460; assay: NCI 60-cell screen; assay type: cell-based, human; settings: averaged, quadruplicate, upper limit 10^−5 M
# [42] = system: OVCAR4; assay: NCI 60-cell screen; assay type: cell-based, human; settings: averaged, quadruplicate, upper limit 10^−5 M
# [43] = system: LOX IMVI; assay: NCI 60-cell screen; assay type: cell-based, human; settings: averaged, quadruplicate, upper limit 10^−5 M
# [44] = system: SF-539; assay: NCI 60-cell screen; assay type: cell-based, human; settings: averaged, quadruplicate, upper limit 10^−5 M
# [45] = system: RXF-393; assay: NCI 60-cell screen; assay type: cell-based, human; settings: averaged, quadruplicate, upper limit 10^−5 M
# [46] = system: SW-620; assay: NCI 60-cell screen; assay type: cell-based, human; settings: averaged, quadruplicate, upper limit 10^−5 M
# [47] = system: IGROV1; assay: NCI 60-cell screen; assay type: cell-based, human; settings: averaged, quadruplicate, upper limit 10^−5 M
# [48] = system: Enterobacter cloacae (ATCC 13047); assay: Antimicrobial disk diffusion; assay type: cell-based
# [49] = system: UACC-62; assay: NCI 60-cell screen; assay type: cell-based, human; settings: averaged, quadruplicate, upper limit 10^−5 M
# [50] = system: MDA-N; assay: NCI 60-cell screen; assay type: cell-based, human; settings: averaged, quadruplicate, upper limit 10^−5 M
# [51] = system: 786-O; assay: NCI 60-cell screen; assay type: cell-based, human; settings: averaged, quadruplicate, upper limit 10^−5 M
# [52] = system: SN12C; assay: NCI 60-cell screen; assay type: cell-based, human; settings: averaged, quadruplicate, upper limit 10^−5 M
# [53] = system: OVCAR-8; assay: NCI 60-cell screen; assay type: cell-based, human; settings: averaged, quadruplicate, upper limit 10^−5 M
# [54] = system: T-47D; assay: NCI 60-cell screen; assay type: cell-based, human; settings: averaged, quadruplicate, upper limit 10^−5 M
# [55] = system: Penicillin-resistant N. gonorrhoeae (clinical isolate); assay: Antimicrobial disk diffusion; assay type: cell-based
# [56] = system: Neisseria gonorrhoeae (ATCC 49226); assay: Antimicrobial disk diffusion; assay type: cell-based
# [57] = system: RPMI-8226; assay: NCI 60-cell screen; assay type: cell-based, human; settings: averaged, quadruplicate, upper limit 10^−5 M
# [58] = system: Candida albicans (ATCC 90028); assay: Antimicrobial disk diffusion; assay type: cell-based
# [59] = system: SF-295; assay: NCI 60-cell screen; assay type: cell-based, human; settings: averaged, quadruplicate, upper limit 10^−5 M
# [60] = system: MDA-MB-231/ATCC; assay: NCI 60-cell screen; assay type: cell-based, human; settings: averaged, quadruplicate, upper limit 10^−5 M
molecule,measurement,setting,value
"C/C=C(/C)C(=O)OC[C@H]1C2=C(C=C3[C@H]4c5c(O)c(OC)c(C)c(O)c5C(=O)[C@@H](C(=O)N31)N4C)C(=O)C(C)=C(OC)C2=O [Cribrostatin 5, cribrostatin 5]",Minimum inhibitory concentration,[1],* (No inhibition at 100 μg/disk)
same,Minimum inhibitory concentration,[2]; listed as 4b,* (No inhibition at 100 μg/disk)
same,GI50,[3],0.36 µg/mL
same,GI50,[4],0.18 µg/mL
same,GI50,[5],0.30 µg/mL
same,GI50,[6],0.29 µg/mL
same,GI50,[7],0.22 µg/mL
same,GI50,[8],0.14 µg/mL
same,Minimum inhibitory concentration,[9]; listed as 4b,50-100 μg/disk
same,GI50,[10],0.045 µg/mL
same,PS ED50 (P388 ED50),[10]; listed as cribrostatin 5,0.045 µg/mL
cribrostatin 3,GI50,[11],4.27 µM
same,negative log10 GI50,[12],5.20
same,negative log10 GI50,[13],5.27
same,negative log10 GI50,[14],5.70
same,negative log10 GI50,[15],5.49
same,Minimum inhibitory concentration,[16],* (No inhibition at 100 μg/disk)
same,negative log10 GI50,[17],5.23
same,negative log10 GI50,[18],5.96
same,negative log10 GI50,[19],5.31
same,negative log10 GI50,[20],5.74
same,negative log10 GI50,[21],5.34
same,negative log10 GI50,[22],5.33
same,negative log10 GI50,[23],5.41
same,negative log10 GI50,[24],5.74
same,negative log10 GI50,[25],5.47
same,Minimum inhibitory concentration,[26],* (No inhibition at 100 μg/disk)
same,Minimum inhibitory concentration,[1],* (No inhibition at 100 μg/disk)
same,Minimum inhibitory concentration,[27],* (No inhibition at 100 μg/disk)
same,negative log10 GI50,[28],5.02
same,negative log10 GI50,[29],5.20
same,negative log10 GI50,[30],5.31
same,negative log10 GI50,[31],5.15
same,negative log10 GI50,[32],5.02
same,Minimum inhibitory concentration,[2],* (No inhibition at 100 μg/disk)
same,negative log10 GI50,[33],5.51
same,negative log10 GI50,[34],5.13
same,GI50,[3],>1 µg/mL
same,GI50,[4],0.77 µg/mL
same,GI50,[5],>1 µg/mL
same,GI50,[6],>1 µg/mL
same,GI50,[7],>1 µg/mL
same,GI50,[8],>1 µg/mL
same,negative log10 GI50,[35],6.21
same,negative log10 GI50,[36],5.32
same,Minimum inhibitory concentration,[37],* (No inhibition at 100 μg/disk)
same,Minimum inhibitory concentration,[38],* (No inhibition at 100 μg/disk)
same,negative log10 GI50,[39],5.37
same,negative log10 GI50,[40],5.46
same,negative log10 GI50,[41],5.52
same,negative log10 GI50,[42],5.28
same,Minimum inhibitory concentration,[9],* (No inhibition at 100 μg/disk)
same,negative log10 GI50,[43],5.39
same,negative log10 GI50,[44],5.32
same,negative log10 GI50,[45],5.31
same,negative log10 GI50,[46],5.44
same,negative log10 GI50,[47],5.14
same,Minimum inhibitory concentration,[48],* (No inhibition at 100 μg/disk)
same,negative log10 GI50,[49],5.60
same,negative log10 GI50,[50],5.72
same,negative log10 GI50,[51],5.23
same,negative log10 GI50,[52],5.21
same,negative log10 GI50,[53],5.06
same,negative log10 GI50,[54],5.19
same,Minimum inhibitory concentration,[55],0.39-0.78 μg/disk
same,GI50,[10],2.49 µg/mL
same,PS ED50 (P388 ED50),[10],2.5 µg/mL
same,Minimum inhibitory concentration,[56],0.0975-0.195 μg/disk
same,negative log10 GI50,[57],5.07
same,Minimum inhibitory concentration,[58],* (No inhibition at 100 μg/disk)
same,negative log10 GI50,[59],5.44
same,negative log10 GI50,[60],5.06

# — patent US6437128B1, “Cribrostatins 3-5” (Arizona Board of Regents, priority 2001, dated 2002)
